Measured values reported in US8741641B2, “Methods for evaluating the stage of ovarian cancer or the survival rate of an ovarian cancer patient” (Fujifilm Corporation, priority 2007, dated 2014).

Columns and labels:
[1] = test system: CTGF gene; assay: RT-PCR analysis of CTGF gene expression in ovarian cancer cell lines after treatment with demethylating reagent or deacetylation inhibitory agent; type: cell-based; settings: ovarian cancer cell lines HNOA and RMG-II not expressing the CTGF gene
Method: D: Ovarian cancer cell lines (HNOA and […]) were treated (+) or not treated (−) with 5-aza-dCyd (5 μM) for 5 days or TSA (100 ng/ml) for 12 hours. The results of RT-PCR analysis on the CTGF gene in the ovarian cancer cell lines.
To examine the expression levels of the 7 above genes (the CTGF gene, the ENPP1 gene, the ENPP3 gene, the CRSP3 gene, the AKAP7 gene, the EPB41L2 gene, and the KIAA1913 gene), 24 types of ovarian cancer cell line, normal ovary, and a normal ovarian epithelial cell-derived immortalized cell line (OSE-2a) were subjected to reverse transcriptase (RT)-PCR. Specifically, a single-chain cDNA was synthesized from the RNA extracted from each cultured cell line using the SuperScript First-Strand Synthesis System (Invitrogen). Moreover, a glyceraldehyde-3-phosphate dehydrogenase (GAPDH) gene was used as a control. As a result, decreased expression levels of the CTGF gene, the ENPP1 gene, and the KIAA1913 gene were shown, compared with the case of normal ovary or OSE-2a cells (FIG. 1D), although chromosomal region 6q23.1-23.2 had not undergone homozygous deletion. This may be due to a mechanism other than genomic deletion, such as an epigenetic phenomenon in ovarian cancer cell lines. Moreover, in the above experiment, the ARG1 gene was not subjected to examination, since the gene is not expressed in the ovary according to the results of analyzing the gene expression database (ncbi.Nlm.nih.gov and http://www.lsbm.org/database/index.html).
To examine if suppressed CTGF gene expression is due to DNA methylation, ovarian cancer cell lines (HNOA and RMG-II) not expressing the CTGF gene were treated using 5 μM demethylating reagent 5-aza-dCyd for 5 days or using deacetylation inhibitory agent TSA (100 ng/ml) for 12 hours. RNAs were extracted from these cells and then CTGF gene expression was examined by RT-PCR (FIG. 1D).

[2] = test system: CpG islands of the CTGF gene; assay: Demethylation of CpG islands of the CTGF gene in ovarian cancer cells cultured with demethylating reagent; type: cell-based; settings: ovarian cancer cells cultured in the presence of the reagent

In the case of Nc1ncn([C@H]2C[C@H](O)[C@@H](CO)O2)c(=O)n1 [5-aza-dCyd, 5-azadeoxycytidine], the “CTGF gene expression (RT-PCR)” value ([1]; 5 μM for 5 days) is reported as “recovers its gene expression”, the “CTGF gene expression (RT-PCR)” value ([1]; 5 μM for 5 days, listed as 5-azadeoxycytidine) is reported as “recover the expression level of the CTGF gene” and the “demethylation of CpG islands” value [2] is reported as “possible to demethylate such CpG islands”.
In the case of CC(/C=C/C(=O)NO)=C\[C@@H](C)C(=O)c1ccc(N(C)C)cc1 [TSA], the “CTGF gene expression (RT-PCR)” value ([1]; 100 ng/ml for 12 hours) is reported as “no differences”.
